Reference: US10258664B2, “Methods and compositions for treating pain” (MannKind Corporation, priority 2011, dated 2019)
Residues, ends and D or L forms follow the SMILES beside them.

Tests used:
mice [1] = assay: Conditioned place preference (CPP) study; conditions: 0.125 mg insufflated; FIG. 5
Experimental: In a conditioned place preference (CPP) study to evaluate the “reward” or “aversive” value of the drug, mice are conditioned to associate one compartment of the apparatus with treatment. […] The experiments were conducted similarly as described in the previous examples. […] To test placebo effect, additional mice were insufflated with FDKP (TECHNOSPHERE®) powder (0.5 mg) without any peptide.

mice [2] = assay: Spontaneous locomotion and respiration in the comprehensive laboratory animal monitoring system (CLAMS); conditions: 0.125 mg by insufflation; for ambulation (spontaneous locomotion): FIG. 4A; for respiration rate: FIG. 4B
patient = assay: Patient examples: inhaled analgesic composition, patient-reported pain; type: in vivo, human
Experimental: patient one reports headache pain to their doctor. […] The analgesic composition is 15% peptide. The analgesic composition is administered with a reusable inhaler calibrated to provide a dose of 5 mg/kg of body weight.
A patient undergoing chemotherapy reports stomach pain to their doctor. […] The analgesic composition is 15% peptide. The analgesic composition is administered with a reusable inhaler calibrated to provide a dose of 5 mg/kg of body weight.
A patient reports back pain to their doctor. Following examination of the patient, the doctor prescribes an analgesic composition containing a FDKP/Trp-(D)Pro-Ser-Phe-NH2 (SEQ ID NO: 3, Compound 3), composition prepared as described in the previous Examples. The analgesic composition is 15% peptide. The analgesic composition is administered with a reusable inhaler calibrated to provide a dose of 4 mg/kg of body weight.
A patient reports dental pain to their doctor. Following examination of the patient, the doctor prescribes an analgesic composition containing an Na2FDKP/Ac-His-(D)Phe-Arg-(D)Trp-Gly-NH2 (SEQ ID NO: 6, Compound 6) composition prepared as described in the previous Examples. The analgesic composition is 10% peptide. The analgesic composition is administered with a reusable inhaler calibrated to provide a dose of 7 mg/kg of body weight.
A patient reports pain due to multiple sclerosis to their doctor. […] The analgesic composition is 20% peptide. The analgesic composition is administered with a reusable inhaler calibrated to provide a dose of 3 mg/kg of body weight.
patient two reports muscle pain to their doctor. Following examination of the patient, the doctor prescribes an analgesic composition containing a FDKP/Ac-His-(D)Phe-Arg-(D)Trp-Gly-NH2 (SEQ ID NO: 6, Compound 6) composition prepared as described in the previous Examples. The analgesic composition is 15% peptide. The analgesic composition is administered with a reusable inhaler calibrated to provide a dose of 5 mg/kg of body weight.
A patient reports pain from a broken arm to their doctor. Following examination of the patient, the doctor prescribes an analgesic composition containing a Na2FDKP/Trp-(D)Ser-Ser-Phe-NH2 (SEQ ID NO: 4, Compound 4) composition prepared as described in the previous Examples. The analgesic composition is 25% peptide. The analgesic composition is administered with a reusable inhaler calibrated to provide a dose of 2 mg/kg of body weight.
A patient reports their low pain threshold to their dentist. Following examination of the patient and prior to the dental procedure, the dentist administers an analgesic composition containing a FDKP/Ac-Nle-Gln-His-(D)Phe-Arg-(D)Trp-Gly-NH2 (SEQ ID NO:7, Compound 7) composition prepared as described in the previous Examples. The analgesic composition is 10% peptide. The analgesic composition is administered with a single-use inhaler designed to provide a dose of 5 mg/kg of body weight.

mice [3] = assay: 55° C. warm-water tail withdrawal (tail-flick) assay; type: in vivo, mouse; conditions: FIG. 1; for plateau of antinociceptive effect: insufflated
Experimental: Antinociceptive effect was tested in a mouse tail-withdrawal (“tail-flick,” Aldrich et al. 2009) assay in which the tail of a restrained mouse is exposed to water at 55° C. […] Durations shorter than the maximum are reported as a percentage of the time limit. This tail-flick test (also known as the 55° C. warm-water tail withdrawal assay) is an industry acceptable, nonclinical model for assessing the efficacy of analgesics in treating acute pain. To test placebo effect, FDKP (TECHNOSPHERE®) powder (0.5 mg) without any peptide was used in the study. Each animal is tested for baseline tail-withdrawal latency prior to drug administration. Latency to withdraw the tail was subsequently measured in 10 minutes post-drug administration intervals as indicated. A maximum response time of 15 seconds was utilized to prevent tissue damage. Data reported as percent antinociception, as calculated by the following equation: % antinociception is equal to 100 times (test latency minus baseline latency) divided by (15 minus baseline latency).
The tetrapetide, (D)Phe-(D)Phe-(D)Nle-(D)Arg-NH2 (SEQ ID NO: 2, Compound 2) was administered to mice by intraperitoneal (i.p.) injection (3 mg/kg) in a saline solution, and by pulmonary insufflation of a dry powder formulation containing FDKP at various doses, 0.25 mg, 0.125 mg, 0.013 mg, 1.25 μg and 0.13 μg. The tail-flick test was performed for a period of time after administration. […]

CN1CC[C@]23c4c5ccc(O)c4O[C@H]2[C@@H](O)C=C[C@H]3[C@H]1C5 [morphine, reference compound]
place preference for the drug-paired compartment (mice [1]): strong preference for the associated compartment | ambulation (spontaneous locomotion) (mice [2]): locomotor hyperactivity | respiration rate (mice [2]): depress the rate of respiration

Ac-Nle-Gln-His-(D)Phe-Arg-(D)Trp-Gly-NH2 [Compound 7]
patient-reported pain during dental procedure (patient; FDKP composition, 10% peptide, single-use inhaler 5 mg/kg, given before procedure, person): no pain during the dental procedure

CCCC[C@@H](NC(=O)[C@@H](Cc1ccccc1)NC(=O)[C@H](N)Cc1ccccc1)C(=O)N[C@H](CCCNC(=N)N)C(N)=O [Compound 2, (D)Phe-(D)Phe-(D)Nle-(D)Arg-NH2] (HELM PEPTIDE1{[dF].[dF].[CCCC[C@@H](N[*:1])C(=O)[*:2]].[dR].[am]}$$$$V2.0; N-terminus assumed)
place preference for the drug-paired compartment (mice [1]): no preference for the paired compartment | ambulation (spontaneous locomotion) (mice [2]): comparable to animals receiving placebo | respiration rate (mice [2]): comparable to animals receiving placebo | antinociception effect versus time (mice [3]; all doses: i.p. 3 mg/kg in saline and insufflated FDKP dry powder 0.25 mg to 0.13 μg): rapidly provided near-complete antinociception | time course of antinociceptive effect (mice [3]; i.p. injection 3 mg/kg in saline): decayed almost linearly with time | dose response of antinociception (mice [3]; insufflated FDKP dry powder 0.25 mg to 0.13 μg): clear dose response was evident | plateau of antinociceptive effect (mice [3]; 0.125 mg dose): approximately 30 minutes | plateau of antinociceptive effect (mice [3]; 0.25 mg dose): 50 to 55 min | patient-reported headache pain (patient; FDKP composition, 15% peptide, inhaled 5 mg/kg, person one): elimination of their headache pain | patient-reported pain due to multiple sclerosis (patient; Na2FDKP composition, 20% peptide, inhaled 3 mg/kg, person): elimination of their multiple sclerosis pain

Ac-His-(D)Phe-Arg-(D)Trp-Gly-NH2 (HXRXG; HELM PEPTIDE1{[ac].H.[dF].R.[dW].G.[am]}$$$$V2.0; SMILES CC(=O)N[C@@H](Cc1c[nH]cn1)C(=O)N[C@H](Cc1ccccc1)C(=O)N[C@@H](CCCNC(=N)N)C(=O)N[C@H](Cc1c[nH]c2ccccc12)C(=O)NCC(N)=O) [Compound 6]
patient-reported muscle pain (patient; FDKP composition, 15% peptide, inhaled 5 mg/kg, person two): elimination of their muscle pain | patient-reported dental pain (patient; Na2FDKP composition, 10% peptide, inhaled 7 mg/kg, person): elimination of their dental pain

CC[C@@H](C)[C@@H](NC(=O)[C@@H](Cc1ccccc1)NC(=O)[C@H](N)Cc1ccccc1)C(=O)N[C@H](CCCNC(=N)N)C(N)=O [Compound 1, (D)Phe-(D)Phe-(D)Ile-(D)Arg-NH2]
place preference for the drug-paired compartment (mice [1]): no preference for the paired compartment | ambulation (spontaneous locomotion) (mice [2]): comparable to animals receiving placebo | respiration rate (mice [2]): comparable to animals receiving placebo

NC(=O)[C@H](Cc1ccccc1)NC(=O)[C@H](CO)NC(=O)[C@@H](CO)NC(=O)[C@@H](N)Cc1c[nH]c2ccccc12 [Compound 4, Trp-(D)Ser-Ser-Phe-NH2] (HELM PEPTIDE1{W.[dS].S.F.[am]}$$$$V2.0)
patient-reported pain from a broken arm (patient; Na2FDKP composition, 25% peptide, inhaled 2 mg/kg, person): elimination of their pain

NC(=O)[C@H](Cc1ccccc1)NC(=O)[C@H](CO)NC(=O)[C@H]1CCCN1C(=O)[C@@H](N)Cc1c[nH]c2ccccc12 [Compound 3, Trp-(D)Pro-Ser-Phe-NH2] (HELM PEPTIDE1{W.[dP].S.F.[am]}$$$$V2.0)
patient-reported back pain (patient; FDKP composition, 15% peptide, inhaled 4 mg/kg, person): elimination of their back pain
